The text below walks through data of ChEMBL document CHEMBL3044836, “Synthesis, antimicrobial and cytotoxic activities of novel 4-trifluoromethyl-(1,2,3)-thiadiazolo-5-carboxylic acid hydrazide Schiffs bases” (Med Chem Res, 2013).

Holding throughout (type): functional
Experiment [1] deals with Saccharomyces cerevisiae. Briefly: Antifungal activity against Saccharomyces cerevisiae MTCC 36 assessed as growth inhibition at 100 ug/ml after 48 hr by agar cup diffusion method. The settings on record: MTCC 36, 48 h, read-out: DIZ.
The next experiment has as its system Pseudomonas aeruginosa. Briefly: Antibacterial activity against Pseudomonas aeruginosa MTCC 741 assessed as growth inhibition by broth dilution method. A general note: Broth dilution looks for growth in wells or tubes with falling amounts of substance.
Experiment [2] has as its system Candida albicans. Put plainly: Antifungal activity against Candida albicans MTCC 227 assessed as growth inhibition at 100 ug/ml after 48 hr by agar cup diffusion method. The settings on record: MTCC 227, 48 h, read-out: DIZ.
In experiment [3] the test system is Diutina rugosa. Briefly: Antifungal activity against Candida rugosa NCIM 3462 assessed as growth inhibition at 100 ug/ml after 48 hr by agar cup diffusion method. The conditions noted are these: NCIM 3462, 48 h, read-out: DIZ.
The subject of another experiment is Escherichia coli. Briefly: Antibacterial activity against Escherichia coli MTCC 443 assessed as growth inhibition by broth dilution method. The conditions noted are these: read-out: MIC.
For experiment [4], the system named is Diutina rugosa. Briefly: Antifungal activity against Candida rugosa NCIM 3462 assessed as growth inhibition at 150 ug/ml after 48 hr by agar cup diffusion method. The settings on record: NCIM 3462, 48 h, read-out: DIZ.
The subject of experiment [5] is Staphylococcus epidermidis. Briefly: Antibacterial activity against Staphylococcus epidermidis MTCC 435 assessed as growth inhibition by broth dilution method.
Experiment [6] concerns Aspergillus niger. Briefly: Antifungal activity against Aspergillus niger MTCC 1344 assessed as growth inhibition at 100 ug/ml after 48 hr by agar cup diffusion method. The conditions noted are these: MTCC 1344, 48 h, read-out: DIZ.
The subject of experiment [7] is Candida albicans. Put plainly: Antifungal activity against Candida albicans MTCC 227 assessed as growth inhibition at 150 ug/ml after 48 hr by agar cup diffusion method. The conditions noted are these: MTCC 227, 48 h, read-out: DIZ.
The test system of a further experiment is Bacillus subtilis. Briefly: Antibacterial activity against Bacillus subtilis MTCC 441 assessed as growth inhibition by broth dilution method.
The test system of experiment [8] is Aspergillus niger. Briefly: Antifungal activity against Aspergillus niger MTCC 1344 assessed as growth inhibition at 150 ug/ml after 48 hr by agar cup diffusion method. The settings on record: MTCC 1344, 48 h, read-out: DIZ.
A further experiment relates to Klebsiella pneumoniae. Briefly: Antibacterial activity against Klebsiella pneumoniae assessed as growth inhibition by broth dilution method.
For experiment [9], the system named is Saccharomyces cerevisiae. Briefly: Antifungal activity against Saccharomyces cerevisiae MTCC 36 assessed as growth inhibition at 150 ug/ml after 48 hr by agar cup diffusion method. The settings on record: MTCC 36, 48 h, read-out: DIZ.
The next experiment deals with Staphylococcus aureus. Briefly: Antibacterial activity against Staphylococcus aureus MTCC 96 assessed as growth inhibition by broth dilution method. The settings on record: read-out: MIC.
The subject of a further experiment is MCF7. Put plainly: Cytotoxicity against Homo sapiens (human) MCF7 cells assessed as cell viability at 10 uM after 48 hr by MTT assay relative to control. The settings on record: MCF7, 48 h, read-out: Activity. A general note: Tetrazolium dyes change colour on reduction, which living cells bring about.
A further experiment concerns MDA-MB-231. Put plainly: Cytotoxicity against Homo sapiens (human) MDA-MB-231 cells assessed as cell viability at 10 uM after 48 hr by MTT assay relative to control. The settings on record: MDA-MB-231, 48 h, read-out: Activity.

In brackets after ≈: the same amount, converted by molar mass.

By MIC is commonly meant the lowest concentration found to suppress growth. As to `C/C(=N\NC(=O)c1snnc1C(F)(F)F)c1ccc([N+](=O)[O-])cc1`, the zone of inhibition at 100 µg/mL with Saccharomyces cerevisiae [1], in the experiment with Candida albicans [2], in the experiment on Diutina rugosa [3] and in the experiment with Aspergillus niger [6] was 0 mm in each case. Besides, the MIC was 150 µg/mL (≈ 417 µM) with Pseudomonas aeruginosa (read-out: MIC); 150 µg/mL (≈ 417 µM) with Escherichia coli; above 150 µg/mL in experiment [5]; above 150 µg/mL in the experiment with Bacillus subtilis; above 150 µg/mL in the experiment on Klebsiella pneumoniae; 150 µg/mL (≈ 417 µM) with Staphylococcus aureus. Also, the zone of inhibition at 150 µg/mL in the experiment with Diutina rugosa [4], in the experiment on Candida albicans [7], with Aspergillus niger [8] and in the experiment on Saccharomyces cerevisiae [9] was 0 mm each time.

`C/C(=N\NC(=O)c1snnc1C(F)(F)F)c1ccc(Br)cc1Br`: the zone of inhibition at 100 µg/mL came to 0 mm in the experiment on Saccharomyces cerevisiae [1], 11 mm in the experiment with Candida albicans [2], 0 mm in the experiment on Diutina rugosa [3] and 0 mm with Aspergillus niger [6]. Besides, the viability at 10 µM came out at 123% in the experiment on MCF7 and 94.7% with MDA-MB-231. Moreover, the minimum inhibitory concentration (MIC) (in the experiment with Pseudomonas aeruginosa (read-out: MIC); in the experiment with Escherichia coli; in experiment [5] (read-out: MIC); in the experiment on Bacillus subtilis (read-out: MIC); in the experiment on Klebsiella pneumoniae (read-out: MIC); with Staphylococcus aureus) was 150 µg/mL (≈ 318 µM) each time. The zone of inhibition at 150 µg/mL stood at 0 mm in the experiment with Diutina rugosa [4], 15 mm in the experiment on Candida albicans [7], 0 mm in the experiment with Aspergillus niger [8] and 0 mm in the experiment on Saccharomyces cerevisiae [9].

Regarding `CC(C)=NNC(=O)c1snnc1C(F)(F)F`, the zone of inhibition at 100 µg/mL with Saccharomyces cerevisiae [1], in the experiment on Candida albicans [2], with Diutina rugosa [3] and in the experiment on Aspergillus niger [6] was 0 mm each time. In addition, the minimal inhibitory concentration (MIC) (with Pseudomonas aeruginosa (read-out: MIC); in the experiment with Escherichia coli; in experiment [5] (read-out: MIC); in the experiment with Bacillus subtilis (read-out: MIC); in the experiment with Klebsiella pneumoniae (read-out: MIC); in the experiment on Staphylococcus aureus) was 150 µg/mL (≈ 595 µM) throughout. The zone of inhibition at 150 µg/mL with Diutina rugosa [4], in the experiment on Candida albicans [7], in the experiment on Aspergillus niger [8] and in the experiment with Saccharomyces cerevisiae [9] was 0 mm each time.

Take `O=C(NN=C1CCCC1)c1snnc1C(F)(F)F`: the zone of inhibition at 100 µg/mL with Saccharomyces cerevisiae [1], in the experiment with Candida albicans [2], in the experiment on Diutina rugosa [3] and with Aspergillus niger [6] was 0 mm throughout. In addition, the viability at 10 µM in the experiment on MCF7 came to 97.9%; in the experiment on MDA-MB-231, 84.2%. Also, the MIC in the experiment with Pseudomonas aeruginosa (read-out: MIC) is 150 µg/mL (≈ 539 µM); in the experiment with Escherichia coli, 150 µg/mL (≈ 539 µM); in experiment [5], above 150 µg/mL; with Bacillus subtilis (read-out: MIC), 150 µg/mL (≈ 539 µM); in the experiment on Klebsiella pneumoniae (read-out: MIC) it was 150 µg/mL (≈ 539 µM); with Staphylococcus aureus it was 150 µg/mL (≈ 539 µM). The zone of inhibition at 150 µg/mL in the experiment with Diutina rugosa [4], with Candida albicans [7], in the experiment with Aspergillus niger [8] and in the experiment on Saccharomyces cerevisiae [9] was 0 mm each time.

In the case of `O=C(NN=C1CCCCC1)c1snnc1C(F)(F)F`, the zone of inhibition at 100 µg/mL in the experiment on Saccharomyces cerevisiae [1], in the experiment with Candida albicans [2], in the experiment with Diutina rugosa [3] and in the experiment on Aspergillus niger [6] was 0 mm throughout. Further, the viability at 10 µM with MCF7 came out at 97.2%; with MDA-MB-231 it was 78.6%. Further, the MIC in the experiment with Pseudomonas aeruginosa is above 150 µg/mL; in the experiment on Escherichia coli, 150 µg/mL (≈ 513 µM); in experiment [5] (read-out: MIC), 150 µg/mL (≈ 513 µM); in the experiment with Bacillus subtilis (read-out: MIC) it was 150 µg/mL (≈ 513 µM); in the experiment on Klebsiella pneumoniae (read-out: MIC) it was 150 µg/mL (≈ 513 µM); in the experiment on Staphylococcus aureus it was 150 µg/mL (≈ 513 µM). In addition, the zone of inhibition at 150 µg/mL in the experiment with Diutina rugosa [4] turned out to be 0 mm; in the experiment with Candida albicans [7], 7 mm; with Aspergillus niger [8], 0 mm; with Saccharomyces cerevisiae [9], 0 mm.

`O=C(NN=C1CCCCCC1)c1snnc1C(F)(F)F`: the zone of inhibition at 100 µg/mL with Saccharomyces cerevisiae [1], in the experiment with Candida albicans [2], with Diutina rugosa [3] and in the experiment on Aspergillus niger [6] was 0 mm each time. The minimum inhibitory concentration (MIC) is 150 µg/mL (≈ 490 µM) with Pseudomonas aeruginosa (read-out: MIC); 150 µg/mL (≈ 490 µM) in the experiment with Escherichia coli; above 150 µg/mL in experiment [5]; above 150 µg/mL in the experiment on Bacillus subtilis; 150 µg/mL (≈ 490 µM) in the experiment on Klebsiella pneumoniae (read-out: MIC); 150 µg/mL (≈ 490 µM) in the experiment with Staphylococcus aureus. The zone of inhibition at 150 µg/mL with Diutina rugosa [4], in the experiment with Candida albicans [7], with Aspergillus niger [8] and in the experiment on Saccharomyces cerevisiae [9] was 0 mm throughout.
